Source: PubChem BioAssay AID1963849 (Molecular Pharmacology Branch, DTP, NCI, 2024)
Several values for one entry are separate records, joined by “and”; a condition that tells them apart may be missing. Equal entries are not always repeated.

System: 299254-011-R-J1-PDC complex spheroid viability
Test: Anticancer human tumor 299254-011-R-J1-PDC patient-derived melanoma cell line growth inhibition [POLQ]
Conditions: for viability, T/C: stronger effect = lower value; active = viability on the fitted dose curve at most 10% of control; inactive = the rest
Procedure: Multicellular complex tumor spheroid response to Polymerase (POL) inhibitors (novobiocin, ART-558, RP6685) in combination with a variety of drugs and investigational agents in selected tumor cell lines
The POL inhibitors (novobiocin, ART-558, and RP6685) were evaluated both individually and in combination with standard of care and investigational anticancer small molecules within a complex spheroid model of solid tumors. . Complex spheroids include a stromal component modeled by human endothelial cells (HUVEC) and fibroblasts modeled by human mesenchymal stem cells (MSCs). The concentration ranges selected for each drug and investigational agent were based upon clinically achievable concentrations if the clinical Cmax of the agent was known.
Compounds. The drugs and investigational agents: novobiocin (NSC847541), ART-558 (NSC835418), RP-6685 (NSC848927), peposertib (NSC802822), ceralasertib (NSC780249), elimusertib (NSC800525), camonsertib (NSC841442), AZD-1390 (NSC803789), olaparib (NSC753686), talazoparib (NSC767125), rucaparib (NSC756644), sotorasib (NSC818433), MRTX-1133 (NSC836407), SN-38 (NSC673596), topotecan (NSC609699), epotoside (NSC141540), doxorubicin (NSC123127), gemcitabine (NSC613327), 5-fluorouracil (NSC19893), paclitaxel (NSC125973), vemurafenib (NSC761431), MSA-2 (NSC828583), SN-011 (NSC837082), adavosertib (NSC754352), prexasertib (NSC758257), carboplatin (NSC241240) and oxaliplatin (NSC266046), were obtained from the National Cancer Institute (NCI) Developmental Therapeutics Program Chemical Repository (21). The FDA-approved anticancer drug set is available from the Developmental Therapeutics Program at https://dtp.cancer.gov/organization/dscb/obtaining/. […] The stock solutions were prepared in dimethyl sulfoxide (DMSO, Sigma-Aldrich, St. Louis, MO, cat. D2650), except for the platinum compounds which were prepared in saline (Quality Biological, Gaithersburg, MD, cat. 114-055-101), at 800-fold the tested concentration and stored at -70 degrees C prior to their use. All drugs and investigational agents were tested over a range starting from a high concentration at or near the clinical Cmax and decreasing in half-log increments. If the clinical Cmax for an agent had not been determined, the highest concentration tested was 10 microM, except for SN-38, which was tested at a high concentration of 1 microM.
Cell Culture. All cells were maintained in an incubator at 37 degrees C and 5% CO2 with 95% humidity. The PDC lines were cultured according to standard operating procedures established by the NCI PDMR (https://pdmr.cancer.gov). Table 3 of the manuscript, lists the cell lines along with the number of the three cell types plated to form the mct-spheroids and media for tumor cell growth. After thawing, all PDC lines, except 997537-175-T-J1-PDC and 415267-285-R-J2-PDC, were cultured in Matrigel-coated flasks prepared with a working solution of 1X Ham's F-12 nutrient mix, without supplementation (Thermo Fisher Scientific, cat. 11765054), 100 U/mL penicillin-streptomycin (Thermo Fisher Scientific, cat. 15140122), and 2.5% Matrigel (Corning Inc., Corning, NY, cat. 354248) for the first three passages. The two PDC lines 997537-175-T-J1-PDC and 415267-285-R-J2-PDC were cultured on uncoated flasks. The 857933-349-R-J2-PDC line was cultured in 6C/Colon 1B media containing advanced DMEM/F-12 (Thermo Fisher Scientific, cat. 12634028), 10 mM HEPES (Thermo Fisher Scientific, cat. 15630080), 1X GlutaMAX supplement (Thermo Fisher Scientific, cat. 35050061), 0.1 mg/mL primocin (InvivoGen, San Diego, CA, cat. ant-pm-2), 10% defined fetal bovine serum, heat inactivated (HyClone Laboratories Inc., Logan, UT, cat. SH30070.03HI), 50% L-WRN conditioned media (ATCC, cat. CRL-3276), 1.25 mM N-Acetyl-L-cysteine (Sigma-Aldrich, cat. A9165), 10 mM nicotinamide (Sigma-Aldrich, cat. N0636), 1X B-27 supplement (Thermo Fisher Scientific, cat. 17504044), 1X N-2 supplement (Thermo Fisher Scientific, cat. […]

[1] = curve of first compound, second compound 0.0316 µM
[2] = curve of first compound, second compound 0.1 µM
[3] = curve of first compound, second compound 0.316 µM
[4] = curve of first compound, second compound 1 µM
[5] = curve of first compound, second compound 3.16 µM
[6] = curve of first compound, second compound 10 µM
[7] = second compound 0.0316 µM, first compound 0.0316 µM
[8] = second compound 0.0316 µM, first compound 0.1 µM
[9] = second compound 0.0316 µM, first compound 0.316 µM
[10] = second compound 0.0316 µM, first compound 1 µM
[11] = second compound 0.0316 µM, first compound 3.16 µM
[12] = second compound 0.0316 µM, first compound 10 µM
[13] = second compound 0.1 µM, first compound 0.0316 µM
[14] = second compound 0.1 µM, first compound 0.1 µM
[15] = second compound 0.1 µM, first compound 0.316 µM
[16] = second compound 0.1 µM, first compound 1 µM
[17] = second compound 0.1 µM, first compound 3.16 µM
[18] = second compound 0.1 µM, first compound 10 µM
[19] = second compound 0.316 µM, first compound 0.0316 µM
[20] = second compound 0.316 µM, first compound 0.1 µM
[21] = second compound 0.316 µM, first compound 0.316 µM
[22] = second compound 0.316 µM, first compound 1 µM
[23] = second compound 0.316 µM, first compound 3.16 µM
[24] = second compound 0.316 µM, first compound 10 µM
[25] = second compound 1 µM, first compound 0.0316 µM
[26] = second compound 1 µM, first compound 0.1 µM
[27] = second compound 1 µM, first compound 0.316 µM
[28] = second compound 1 µM, first compound 1 µM
[29] = second compound 1 µM, first compound 3.16 µM
[30] = second compound 1 µM, first compound 10 µM
[31] = second compound 3.16 µM, first compound 0.0316 µM
[32] = second compound 3.16 µM, first compound 0.1 µM
[33] = second compound 3.16 µM, first compound 0.316 µM
[34] = second compound 3.16 µM, first compound 1 µM
[35] = second compound 3.16 µM, first compound 3.16 µM
[36] = second compound 3.16 µM, first compound 10 µM
[37] = second compound 10 µM, first compound 0.0316 µM
[38] = second compound 10 µM, first compound 0.1 µM
[39] = second compound 10 µM, first compound 0.316 µM
[40] = second compound 10 µM, first compound 1 µM
[41] = second compound 10 µM, first compound 3.16 µM
[42] = second compound 10 µM, first compound 10 µM
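Also: spheroids exposed to drugs for one week before measurement.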
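For viability, T/C in this document: percent viability relative to DMSO vehicle control taken as 100%.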

O=C(Nc1ccc(O)c(NS(=O)(=O)c2ccc(F)cc2)c1)c1ccc(-c2ccccc2)cc1 + Cc1cccc(N(C)C(=O)C2C(O)CCN2c2nc(C)cc(C(F)(F)F)c2C#N)c1
8.66 µM: IC50 [6]
9.75 µM: IC50 [5]
> 10 µM: IC50 [1] | IC50 [3] | IC50 [4]
inactive: viability, T/C [7] 102% | viability, T/C [8] 99.2% | viability, T/C [9] 92.7% | viability, T/C [10] 104% | viability, T/C [11] 99.3% | viability, T/C [12] 54.8% | viability, T/C [13] 105% | viability, T/C [14] 107% | viability, T/C [15] 98% | viability, T/C [16] 107% | viability, T/C [17] 96.3% | viability, T/C [18] 47.3% | viability, T/C [19] 102% | viability, T/C [20] 115% | viability, T/C [21] 98.2% | viability, T/C [22] 123% | viability, T/C [23] 93.7% | viability, T/C [24] 56.2% | viability, T/C [25] 106% | viability, T/C [26] 111% | viability, T/C [27] 109% | viability, T/C [28] 104% | viability, T/C [29] 90.7% | viability, T/C [30] 53% | viability, T/C [31] 108% | viability, T/C [32] 103% | viability, T/C [33] 101% | viability, T/C [34] 94.8% | viability, T/C [35] 100% | viability, T/C [36] 48.9% | viability, T/C [37] 98.7% | viability, T/C [38] 98% | viability, T/C [39] 93.6% | viability, T/C [40] 110% | viability, T/C [41] 83.4% | viability, T/C [42] 45.2%
9.45 µM: IC50 [2]

COc1cc(C2c3cc4c(cc3C(OC3OC5COC(C)OC5C(O)C3O)C3COC(=O)C23)OCO4)cc(OC)c1O (stereo not drawn)
inactive: viability, T/C (compound 0.0316 µM) 101% and 98.9% and 106% | viability, T/C (compound 0.1 µM) 103% and 106% and 84.8% | viability, T/C (compound 0.316 µM) 93.5% and 92.1% and 111% | viability, T/C (compound 1 µM) 87.4% and 91.4% and 94.4% | viability, T/C (compound 3.16 µM) 67.7% and 73.7% and 72.5% | viability, T/C (compound 10 µM) 53.7% and 56.4% and 62.8%
> 10 µM: IC50 (curve of compound)

CCc1cc2c(N3CCc4c(cc(Cn5ccnc5)cc4-c4cn(C)nc4C(F)(F)F)C3=O)ccnc2c(OC)n1 + Cc1cccc(N(C)C(=O)C2C(O)CCN2c2nc(C)cc(C(F)(F)F)c2C#N)c1
inactive: viability, T/C [7] 97.6% | viability, T/C [8] 119% | viability, T/C [9] 98.9% | viability, T/C [10] 106% | viability, T/C [11] 109% | viability, T/C [12] 80.4% | viability, T/C [13] 98.7% | viability, T/C [14] 102% | viability, T/C [15] 99.7% | viability, T/C [16] 99.4% | viability, T/C [17] 99.1% | viability, T/C [18] 86.1% | viability, T/C [19] 98.5% | viability, T/C [20] 91.2% | viability, T/C [21] 116% | viability, T/C [22] 112% | viability, T/C [23] 84.2% | viability, T/C [24] 72.8% | viability, T/C [25] 110% | viability, T/C [26] 96.9% | viability, T/C [27] 113% | viability, T/C [28] 107% | viability, T/C [29] 91% | viability, T/C [30] 86% | viability, T/C [31] 106% | viability, T/C [32] 96.9% | viability, T/C [33] 101% | viability, T/C [34] 105% | viability, T/C [35] 95.5% | viability, T/C [36] 76.4% | viability, T/C [37] 94% | viability, T/C [38] 112% | viability, T/C [39] 105% | viability, T/C [40] 82.1% | viability, T/C [41] 75.7% | viability, T/C [42] 79%
> 10 µM: IC50 [1] | IC50 [2] | IC50 [3] | IC50 [4] | IC50 [5] | IC50 [6]

COc1cccc2c1C(=O)c1c(O)c3c(c(O)c1C2=O)CC(O)(C(=O)CO)CC3OC1CC(N)C(O)C(C)O1 (stereo not drawn) + COC1C(OC(N)=O)C(O)C(Oc2ccc3c(O)c(NC(=O)c4ccc(O)c(CC=C(C)C)c4)c(=O)oc3c2C)OC1(C)C
active: viability, T/C [12] 3.09% | viability, T/C [18] 3% | viability, T/C [24] 0.51% | viability, T/C [30] 0.78% | viability, T/C [36] 0.92% | viability, T/C [41] 10.7% | viability, T/C [42] 1.25%
0.527 µM: IC50 [3]
0.826 µM: IC50 [5]
0.564 µM: IC50 [1]
0.541 µM: IC50 [6]
0.909 µM: IC50 [4]
0.815 µM: IC50 [2]
inactive: viability, T/C [7] 81.9% | viability, T/C [8] 96.5% | viability, T/C [9] 55.2% | viability, T/C [10] 40.7% | viability, T/C [11] 9.45% | viability, T/C [13] 86.8% | viability, T/C [14] 97.5% | viability, T/C [15] 75.7% | viability, T/C [16] 44.9% | viability, T/C [17] 11.2% | viability, T/C [19] 99.2% | viability, T/C [20] 96% | viability, T/C [21] 54.9% | viability, T/C [22] 37.8% | viability, T/C [23] 13.1% | viability, T/C [25] 93% | viability, T/C [26] 87.5% | viability, T/C [27] 76.7% | viability, T/C [28] 49.2% | viability, T/C [29] 11.9% | viability, T/C [31] 92.6% | viability, T/C [32] 95.5% | viability, T/C [33] 76.7% | viability, T/C [34] 45.6% | viability, T/C [35] 10.3% | viability, T/C [37] 105% | viability, T/C [38] 104% | viability, T/C [39] 65.2% | viability, T/C [40] 30%
